Read-outs that look alike come from different tables or passages of the source. Where a SMILES comes first, the peptide text is derived from it. Where no end group is shown, it is not given here. The star is where a group is joined. Dodecyl = CCCCCCCCCCCC*
Assays:
Gs = Gs (Homo sapiens, UniProt P63092); test: steady state GTPase activity of Gs; assay type: biochemical; details: read-out: Gs af. (apparent affinity, estimated by EC50 of GTPase activity)
Procedure: Methods for the assay of steady state GTP hydrolysis and GTPγS binding have been described previously by Higashijima, 1987, and Ferguson, 1986, and incorporated herein by reference. Unless noted otherwise, assays of steady state GTP hydrolysis and of the binding and dissociation of guanine nucleotides were carried out in the buffer described previously, but without detergent and with 1.1 mM MgSO4 and the nucleotide specified in the text. When necessary, the concentration of free Mg^2+ was adjusted using EDTA buffers as described previously by Higashijima, 1987, and incorporated herein by reference.
The data set forth in the following tables represent data generated by the inventors employing the steady state GTP hydrolysis, expressed as molar turnover numbers, are described herein under the "Assay" section of the Experimental Procedures in Example 1. The data has been classified according to the criteria outlined below and the effects of each peptide and modified variant on Go, Gi, and Gs have been tabulated. Table III below sets forth data generated for various mastoparan analogues designed by the inventors, in comparison with the various naturally-occurring mastoparans (e.g., MP, MP-A and MP-T). Table IV sets forth similar data generated for various receptor-based peptides designed by the inventors based on a consideration of various G-protein linked receptors.
Apparent affinity (af.) and apparent efficacy (ef.) were estimated by EC50 and maximum turnover number of GTPase activity.

Go = biological target: T1, Go (Bos taurus, UniProt P08239); test: steady state GTPase activity of Go in phospholipid vesicles; assay type: biochemical, bovine
T1 construct: proteins were extracted from bovine cerebral cortical membranes; from tissue; host or cells: bovine brain (cerebral cortical membranes)
Text: G proteins were reconstituted into phospholipid vesicles composed of dioleoyl-PC/bovine brain PS/1-palmitoyl,2-oleoyl-PE (3:4:3) as reported previously by Higashijima et al., 1988, incorporated herein by reference.

[1] = Table VI, receptor-based peptides

Chain of Gs (P63092 whole entry): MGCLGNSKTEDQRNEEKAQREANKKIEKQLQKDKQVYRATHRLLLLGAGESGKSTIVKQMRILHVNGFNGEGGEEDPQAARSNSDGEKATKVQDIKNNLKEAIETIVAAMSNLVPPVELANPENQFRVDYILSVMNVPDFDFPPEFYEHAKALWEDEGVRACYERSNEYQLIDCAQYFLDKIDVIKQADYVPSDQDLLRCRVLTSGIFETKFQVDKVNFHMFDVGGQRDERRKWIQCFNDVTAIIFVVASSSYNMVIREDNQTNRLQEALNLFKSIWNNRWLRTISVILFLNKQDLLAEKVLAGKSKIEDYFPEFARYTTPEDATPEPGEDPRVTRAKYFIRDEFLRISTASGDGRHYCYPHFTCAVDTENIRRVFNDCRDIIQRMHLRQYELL
T1 sequence (P08239 2-354 limits assumed): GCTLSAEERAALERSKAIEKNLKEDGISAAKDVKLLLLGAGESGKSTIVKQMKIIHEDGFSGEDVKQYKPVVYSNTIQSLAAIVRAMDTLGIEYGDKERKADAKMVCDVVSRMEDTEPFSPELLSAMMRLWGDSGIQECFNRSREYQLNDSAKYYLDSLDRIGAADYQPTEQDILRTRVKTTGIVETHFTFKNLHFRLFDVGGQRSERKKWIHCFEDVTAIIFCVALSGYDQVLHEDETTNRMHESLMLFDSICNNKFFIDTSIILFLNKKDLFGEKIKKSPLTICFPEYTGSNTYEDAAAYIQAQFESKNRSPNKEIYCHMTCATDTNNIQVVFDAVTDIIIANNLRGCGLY
T1 sequence (P62871 2-340 partner limits assumed): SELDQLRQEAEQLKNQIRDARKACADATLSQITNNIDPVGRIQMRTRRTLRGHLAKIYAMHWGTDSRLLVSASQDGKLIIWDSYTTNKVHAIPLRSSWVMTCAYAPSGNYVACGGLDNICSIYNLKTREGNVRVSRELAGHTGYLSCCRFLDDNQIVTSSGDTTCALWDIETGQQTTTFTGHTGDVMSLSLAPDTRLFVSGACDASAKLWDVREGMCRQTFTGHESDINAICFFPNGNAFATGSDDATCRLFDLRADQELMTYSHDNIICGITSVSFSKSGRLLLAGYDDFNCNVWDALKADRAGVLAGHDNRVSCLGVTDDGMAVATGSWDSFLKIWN
T1 sequence (P63212 2-68 partner limits assumed): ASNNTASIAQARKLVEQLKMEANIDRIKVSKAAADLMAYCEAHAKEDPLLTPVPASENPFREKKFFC

| Compound | EC50 (Gs; Table IV) [µM] | EC50 (Go) [µM] | EC50 (Gs; [1]) [µM] |
| --- | --- | --- | --- |
| INLKALAALAQALL-NH2 [ER3] | 3 to 10 | 10 to 30 |  |
| INYKALCALAKKIL-NH2 [ER15] | 10 to 30 | 30 to 100 |  |
| CNYKALAALAKALL-NH2 [ER16] | 10 to 30 | 3 to 10 |  |
| INLKALAAKAKKLL-NH2 [MAS13] | 3 to 10 | 30 to 100 |  |
| INLKALAALAKNLL-NH2 [ER20] | 10 to 30 | 3 to 10 |  |
| INLKALAALKKKLL-NH2 [MAS11] | 3 to 10 | 10 to 30 |  |
| CISRASKSRIKKDKKEPVAIL-NH2 [ER44] |  | < 3 | 30 to 100 |
| INLKKLAALAKKLL-NH2 [MAS18] | 3 to 10 | 10 to 30 |  |
| CIYRETENRARELAALQGSETIL-NH2 [ER33] |  | > 100 | > 100 |
| CVYREAKEQIRKIL-NH2 [ER19] |  | > 100 | > 100 |
| INLKALAALAKALL-NH2 [ER1] | 3 to 10 | 3 to 10 |  |
| INLKAIAAFAKKLL-NH2 [MP-T, reference compound] | 10 to 30 | 3 to 10 |  |
| INLKALAALAKKLA-NH2 [MAS04] | 3 to 10 | 3 to 10 |  |
| INLQALKALAKALL-NH2 [ER11] | 3 to 10 | 3 to 10 |  |
| INYKALAALAKALC-NH2 [ER17] | 10 to 30 | 3 to 10 |  |
| CC[C@H](C)[C@H](N)C(=O)N[C@@H](CC(N)=O)C(=O)N[C@@H](CC(C)C)C(=O)N[C@@H](CCCCN)C(=O)N[C@@H](C)C(=O)N[C@@H](CC(C)C)C(=O)N[C@@H](C)C(=O)N[C@@H](C)C(=O)N[C@@H](CC(C)C)C(=O)N[C@@H](C)C(=O)N[C@@H](CCCCN)C(=O)N[C@@H](CCCCN)C(=O)N[C@@H](C)C(=O)N[C@@H](CC(C)C)C(N)=O [MAS05, INLKALAALAKKAL] | 10 to 30 | 10 to 30 |  |
| CVYREAKEQIRKIDRVL-NH2 [ER18] |  | 30 to 100 | > 100 |
| INFKALAALAKKLL-NH2 [MAS22] | 3 to 10 | 10 to 30 |  |
| CVYIVAKRTTKNLEIL-NH2 [ER35] |  | 10 to 30 | > 100 |
| INLKAFAALAKKLL-NH2 [MAS23] | 3 to 10 | 10 to 30 |  |
| IKWKAILDAVKKVL-NH2 [MP-A, reference compound] | 3 to 10 | 3 to 10 |  |

| Compound | EC50 (Gs; Table IV) [µM] | EC50 (Go) [µM] | EC50 (Gs; [1]) [µM] |
| --- | --- | --- | --- |
| INLQALAALAQALL-NH2 [ER9] | 10 to 30 | 30 to 100 |  |
| IVYREAKEQIRKIL-NH2 [ER23] |  | 30 to 100 | 30 to 100 |
| CVYIVAKRTTKNLEAGVMKEIL-NH2 [ER34] |  | 30 to 100 | 30 to 100 |
| INLRALAALAKKLL-NH2 [MAS20] | 3 to 10 | 3 to 10 |  |
| ILLKALAALAKALL-NH2 [ER21] | 3 to 10 | 3 to 10 |  |
| CCCCCCCCCCCCSC[C@H](NC(=O)[C@@H](NC(=O)[C@@H](NC(=O)CNC(=O)[C@H](CC(C)C)NC(=O)[C@@H](NC(=O)[C@H](CCCCN)NC(=O)[C@H](CC(C)C)NC(=O)[C@H](C)NC(=O)[C@H](CCCCN)NC(=O)[C@H](Cc1c[nH]cn1)NC(=O)[C@H](CCC(=O)O)NC(=O)[C@@H](N)CCCNC(=N)N)[C@@H](C)O)[C@@H](C)CC)[C@@H](C)CC)C(N)=O [C12-ER40] (H-REHKALKTLGIIC(Dodecyl)-NH2) |  | 3 to 10 | 3 to 10 |
| INLKALKALAKKLL-NH2 [MAS15] | 3 to 10 | 10 to 30 |  |
| INLKALAKLAKKLL-NH2 [MAS14] | 3 to 10 | 10 to 30 |  |
| CLLKALAALAKALL-NH2 [ER30] | 3 to 10 | 3 to 10 |  |
| CVYREAKEQIRKIDR-NH2 [ER43] |  | > 100 | > 100 |
| INLKALAALARKLL-NH2 [MAS10] | 3 to 10 | 3 to 10 |  |
| INLKALAALAAALL-NH2 [ER5] | 3 to 10 | 3 to 10 |  |
| INAKALAALAKKLL-NH2 [MAS21] | 10 to 30 | 10 to 30 |  |
| CVYVVAKRESRGLKSGLKTDIL-NH2 [ER46] |  | 30 to 100 | > 100 |
| IVYREAKEQIRKIDRVL-NH2 [ER22] |  | 30 to 100 | 30 to 100 |
| CVYVVAKRESRGLKIL-NH2 [ER47] |  | 30 to 100 | > 100 |
| INLAALAALAKALL-NH2 [ER4] | 3 to 10 | 3 to 10 |  |
| INLQALAALAKALL-NH2 [ER8] | 3 to 10 | 3 to 10 |  |
| CISRASKSRIKKDKKIL-NH2 [ER45] |  | < 3 | 3 to 10 |
| INLKAAAALAKKLL-NH2 [MAS16] | 3 to 10 | 10 to 30 |  |
| INLKALKALAKALL-NH2 [ER10] | 3 to 10 | < 3 |  |

| Compound | EC50 (Gs; Table IV) [µM] | EC50 (Go) [µM] | EC50 (Gs; [1]) [µM] |
| --- | --- | --- | --- |
| REHKALKTLGIIC-NH2 [ER40] |  | > 100 | 30 to 100 |
| INLAALAALAKKLL-NH2 [Mas19] | 3 to 10 | 3 to 10 |  |
| INLKALAALAKRLL-NH2 [MAS08] | 3 to 10 | 3 to 10 |  |
| INLRALAALAKALL-NH2 [ER6] | 3 to 10 | < 3 |  |
| CC[C@H](C)[C@H](N)C(=O)N[C@@H](CC(N)=O)C(=O)N[C@@H](Cc1ccc(O)cc1)C(=O)N[C@@H](CCCCN)C(=O)N[C@@H](C)C(=O)N[C@@H](CC(C)C)C(=O)N[C@@H](C)C(=O)N[C@@H](C)C(=O)N[C@@H](CC(C)C)C(=O)N[C@@H](C)C(=O)N[C@@H](CCCCN)C(=O)N[C@@H](CCCCN)C(=O)N[C@H](C(=O)N[C@@H](CC(C)C)C(N)=O)[C@@H](C)CC [ER13] | 3 to 10 | 3 to 10 |  |
| INWRAWRAWARAWL-NH2 [ER27] | 3 to 10 | < 3 |  |
| CC[C@H](C)[C@H](N)C(=O)N[C@@H](CC(N)=O)C(=O)N[C@@H](CC(C)C)C(=O)N[C@@H](CCCCN)C(=O)N[C@@H](C)C(=O)N[C@@H](CC(C)C)C(=O)N[C@@H](C)C(=O)N[C@@H](C)C(=O)N[C@@H](CC(C)C)C(=O)N[C@@H](C)C(=O)N[C@@H](CCCCN)C(=O)N[C@@H](CCCCN)C(=O)N[C@@H](CCCCN)C(=O)N[C@@H](CC(C)C)C(N)=O [MAS06] | 30 to 100 | 30 to 100 |  |
| CVFQVAKRQLQKIDKVL-NH2 [ER36] |  | 10 to 30 | 30 to 100 |
| INLRALAALRRRLL-NH2 [ER28] | 3 to 10 | < 3 |  |
| INLKALAALAAKLL-NH2 [Mas9] | 30 to 100 | 3 to 10 |  |
| INLKALAALARALL-NH2 [ER2] | 3 to 10 | < 3 |  |
| INLKAKAALAKKLL-NH2 [Mas17] | 3 to 10 | 30 to 100 |  |
| CPLSYRAKRTPRRAALM-NH2 [ER38] |  | 3 to 10 | 30 to 100 |
| INLRALAALARALL-NH2 [ER7] | 3 to 10 | < 3 |  |
| CC[C@H](C)[C@H](N)C(=O)N[C@@H](CC(N)=O)C(=O)N[C@@H](CC(C)C)C(=O)N[C@@H](CCCCN)C(=O)N[C@@H](C)C(=O)N[C@@H](CC(C)C)C(=O)N[C@@H](C)C(=O)N[C@@H](C)C(=O)N[C@@H](CC(C)C)C(=O)N[C@@H](C)C(=O)N[C@@H](CCCCN)C(=O)N[C@@H](CCCCN)C(=O)N[C@@H](CC(C)C)C(=O)N[C@@H](CC(C)C)C(N)=O [MAS03] | 10 to 30 | 3 to 10 |  |
| INYKALAACAKKIL-NH2 [ER14] | 3 to 10 | 3 to 10 |  |
| INLKALAAAAKKLL-NH2 [MAS12] | 3 to 10 | 10 to 30 |  |
| CIYRETENRARELAALQGSET-NH2 [ER32] |  | > 100 | > 100 |
| INLRALRALARALL-NH2 [ER24] | 3 to 10 | < 3 |  |
| IQLKALAALAKALL-NH2 [ER12] | 3 to 10 | 3 to 10 |  |

Source: patent US5589568A (priority 1994, dated 1996)
